The record followed here is patent US4772633A, “6-pyridyl- and 6-phenyl-3-phenyl-1-hexenes and -1-hexynes, composition containing them, and insecticidal and acaricidal method of using them” (Sumitomo Chemical Company, Limited, priority 1986, dated 1988).

Experiment [1] relates to common mosquito (Culex pipiens pallens). Kind of experiment: Test Example 1: mortality of larvae and inhibition of emergence of common mosquito. Conditions: for Inhibitory ratio of emergence: 3.5 ppm, counted when all mosquitoes of no treatment group had emerged; for mortality at 3.5 ppm: Culex pipiens, 24 h, last instar larvae, after one day. The class given is in vivo. The protocol:
The emulsifiable concentrates of the following present compounds obtained according to Formulation example 2 were each diluted with water so as to obtain respective aqueous solutions containing 3.5 ppm of said compounds, respectively. One hundred ml of thus diluted aqueous solutions were poured into respective polyethylene cups of 180 ml volume, and 20 of the last instar larvae of common mosquito (Culex pipiens pallens) were liberated thereto. After one day, the dead or alive of the larvae were examined. Thereafter, the feed was added to respective cups and the number of emerged mosquitoes of the respective cups was counted when all the mosquitoes of no treatment group had […] to calculate the inhibitory ratios of the emergence. The mortality and the inhibitory ratio of the emergence are shown according to the following three criteria: mortality: A; 90% or more, […] inhibitory: A; 90% or more, ratio of emergence B; less than 90% to 80% C; less than 80%.

The subject of experiment [2] is carmine spider mite (Tetranychus cinnabarinus). Kind of experiment: Test Example 8: degree of damage of kidney bean plant by carmine spider mite. The class given is in vivo. The arrangement: key: -: No damage is observed.; +: Slight damage is observed.; ++: The same damage as in the untreated plot is observed. The following applies: 500 ppm, sprayed 15 ml/pot plus 2 ml to soil; after 8 days; 25° C. How it is done:
The female adults of carmine spider mite (Tetranychus cinnabarinus) were put at a rate of 10 adults/leaf on the leaves of potted kidney bean (at the primordial leaf stage) which had elapsed 7 days after sowing, and placed in a constant-temperature room kept at 25° C. After 6 days, the 200-fold aqueous dilute solutions (corresponding to 500 ppm), prepared from the emulsifiable concentrates of the following present compounds and control compounds prepared according to Formulation example 2, were each sprayed at a rate of 15 ml/pot on a turn table. At the same time, the soil in the pot was treated with 2 ml of each aqueous solution. After 8 days, the degree of damage of the plant by the mite was examined.
-: No damage is observed.
+: Slight damage is observed.
++: The same damage as in the untreated plot is observed.

Some results are limits rather than exact numbers.

Broadly, the mortality is the share of the test organisms that died. As to `C#CC(C)(CCCc1ccc(F)c(Oc2ccccc2)c1)c1ccc(OC)cc1` (centres unmarked) [(5), 3-(4-Methoxyphenyl)-3-methyl-6-(3-phenoxy-4-fluorophenyl)-1-hexyne], in experiment [1], the “Inhibitory ratio of emergence” value is “A (90% or more)” and the mortality at 3.5 ppm is greater than 90%.

Consider `C#CC(C)(CCCc1ccc(F)c(Oc2ccccc2)c1)c1ccc(OC(F)F)cc1` (centres unmarked) [(6), 3-(4-Difluoromethoxyphenyl)-3-methyl-6-(3-phenoxy-4-fluorophenyl)-1-hexyne], for which, in experiment [1], the “Inhibitory ratio of emergence” value is reported as “A (90% or more)” and the mortality at 3.5 ppm was greater than 90%. For the same compound, the Degree of damage entry in experiment [2] is “-”.

`C#CC(C)(CCCc1ccc(F)c(Oc2ccccc2)c1)c1ccc(OCC=C)cc1` (centres unmarked) [(8), 3-(4-Allyloxyphenyl)-3-methyl-6-(3-phenoxy-4-fluorophenyl)-1-hexyne]: in experiment [1], the “Inhibitory ratio of emergence” value was “A (90% or more)” and the mortality at 3.5 ppm is greater than 90%. Moreover, the Degree of damage result in experiment [2] is on record as “-”.

With `C#CC(C)(CCCc1ccc(F)c(Oc2ccccc2)c1)c1ccc(F)cc1` (centres unmarked) [(9), 3-(4-Fluorophenyl)-3-methyl-6-(3-phenoxy-4-fluorophenyl)-1-hexyne], in experiment [1], the “Inhibitory ratio of emergence” value is reported as “A (90% or more)” and the mortality at 3.5 ppm was greater than 90%.

For `C#CC(C)(CCCc1ccc(F)c(Oc2ccccc2)c1)c1ccc(Cl)cc1` (centres unmarked) [(10), 3-(4-Chlorophenyl)-3-methyl-6-(3-phenoxy-4-fluorophenyl)-1-hexyne], in experiment [1], the “Inhibitory ratio of emergence” value is recorded as “A (90% or more)” and the mortality at 3.5 ppm was greater than 90%. The Degree of damage result in experiment [2] is recorded as “-”.

On to `C#CC(C)(CCCc1ccc(F)c(Oc2ccccc2)c1)c1ccc(OCC)c(Cl)c1` (centres unmarked) [(11), 3-(3-Chloro-4-ethoxyphenyl)-3-methyl-6-(3-phenoxy-4-fluorophenyl)-1-hexyne], for which, in experiment [1], the “Inhibitory ratio of emergence” value was “A (90% or more)” and the mortality at 3.5 ppm is greater than 90%. For the same compound, the Degree of damage result in experiment [2] is recorded as “-”.

Turning to `C#CC(C)(CCCc1ccc(F)c(Oc2ccccc2)c1)c1ccc2c(c1)OCO2` (centres unmarked) [(12), 3-(3,4-Methylenedioxyphenyl)-3-methyl-6-(3-phenoxy-4-fluorophenyl)-1-hexyne], in experiment [1], the “Inhibitory ratio of emergence” value is “A (90% or more)” and the mortality at 3.5 ppm is greater than 90%.

`C#CC(C)(CCCc1cccc(Oc2ccccc2)c1)c1ccc2c(c1)OCO2` (centres unmarked) [(14), 3-(3,4-Methylenedioxyphenyl)-3-methyl-6-(3-phenoxyphenyl)-1-hexyne]: in experiment [1], the “Inhibitory ratio of emergence” value is on record as “A (90% or more)” and the mortality at 3.5 ppm is greater than 90%.

`C#CC(C)(CCCc1cccc(Oc2ccc(F)cc2)c1)c1ccc(OCC)cc1` (centres unmarked) [(15), 3-(4-Ethoxyphenyl)-3-methyl-6-{3-(4-fluorophenoxy)phenyl}-1-hexyne]: in experiment [1], the “Inhibitory ratio of emergence” value is reported as “A (90% or more)” and the mortality at 3.5 ppm was greater than 90%.

`C=CC(C)(CCCc1cccc(Oc2ccccc2)n1)c1ccc(OCC)cc1` (centres unmarked) [(19), 3-(4-Ethoxyphenyl)-3-methyl-6-(6-phenoxypyridin-2-yl)-1-hexene]: in experiment [1], the “Inhibitory ratio of emergence” value is given as “A (90% or more)” and the mortality at 3.5 ppm lay within 10 to 90%.

Turning to `C#CC(C)(CCCc1ccc(F)c(Nc2ccccc2)c1)c1ccc(OCC)cc1` (centres unmarked) [(21), 3-(4-Ethoxyphenyl)-3-methyl-6-(3-anilino-4-fluorophenyl)-1-hexyne], in experiment [1], the “Inhibitory ratio of emergence” value is recorded as “A (90% or more)” and the mortality at 3.5 ppm is greater than 90%.

As to `C#CC(C)(CCCc1cccc(Sc2ccccc2)c1)c1ccc(OCC)cc1` (centres unmarked) [(22), 3-(4-Ethoxyphenyl)-3-methyl-6-(3-phenylthiophenyl)-1-hexyne], in experiment [1], the “Inhibitory ratio of emergence” value was “A (90% or more)” and the mortality at 3.5 ppm was in the range of 10 to 90%.

Take `C#CC(C)(CCCc1cccc(Oc2ccccc2)c1)c1ccc(CC)cc1` (centres unmarked) [(23), 3-(4-Ethylphenyl)-3-methyl-6-(3-phenoxyphenyl)-1-hexyne]: in experiment [1], the “Inhibitory ratio of emergence” value was “A (90% or more)” and the mortality at 3.5 ppm was greater than 90%.

For the compound `C#CC(C)(CCCc1cccc(Oc2ccccc2)c1)c1ccc(OC)cc1` (centres unmarked) [(24), 3-(4-Methoxyphenyl)-3-methyl-6-(3-phenoxyphenyl)-1-hexyne], in experiment [1], the “Inhibitory ratio of emergence” value is “A (90% or more)” and the mortality at 3.5 ppm was 10 to 90%.

In the case of `C#CC(CC)(CCCc1cccc(Oc2ccccc2)c1)c1ccc(Cl)cc1` (centres unmarked) [(26), 3-(4-Chlorophenyl)-3-ethyl-6-(3-phenoxyphenyl)-1-hexyne], in experiment [1], the “Inhibitory ratio of emergence” value is on record as “A (90% or more)” and the mortality at 3.5 ppm is greater than 90%.

On to `C#CC(C)(CCCc1ccc(F)c(Oc2ccccc2)c1)c1ccc(OC(F)F)c(Cl)c1` (centres unmarked) [(27)], for which, in experiment [1], the “Inhibitory ratio of emergence” value is recorded as “A (90% or more)” and the mortality at 3.5 ppm was in the range of 10 to 90%.

With `C#CC(CCCc1cccc(Oc2ccccc2)c1)c1ccc(OCC)cc1` (centres unmarked) [(28), 3-(4-Ethoxyphenyl)-6-(3-phenoxyphenyl)-1-hexyne], in experiment [1], the “Inhibitory ratio of emergence” value is recorded as “A (90% or more)” and the mortality at 3.5 ppm was greater than 90%.

With `C#CC(CC)(CCCc1ccc(F)c(Oc2ccccc2)c1)c1ccc(OCC)cc1` (centres unmarked) [(29), 3-(4-Ethoxyphenyl)-3-ethyl-6-(3-phenoxy-4-fluorophenyl)-1-hexyne], in experiment [1], the “Inhibitory ratio of emergence” value is reported as “A (90% or more)” and the mortality at 3.5 ppm was greater than 90%.

Regarding `C#CC(C)(CCCc1ccc(F)c(Cc2ccccc2)c1)c1ccc(OCC)cc1` (centres unmarked) [(30), 3-(4-Ethoxyphenyl)-3-methyl-6-(3-benzyl-4-fluorophenyl)-1-hexyne], in experiment [1], the “Inhibitory ratio of emergence” value is recorded as “A (90% or more)” and the mortality at 3.5 ppm is greater than 90%.

Take `C=CC(C)(CCCc1ccc(F)c(Nc2ccccc2)c1)c1ccc(OCC)cc1` (centres unmarked) [(31), 3-(4-Ethoxyphenyl)-3-methyl-6-(3-anilino-4-fluorophenyl)-1-hexene]: in experiment [1], the “Inhibitory ratio of emergence” value is listed as “A (90% or more)” and the mortality at 3.5 ppm is greater than 90%.

Take `C#CC(CC)(CCCc1cccc(Oc2ccccc2)c1)c1ccc(OCC)cc1` (centres unmarked) [(32), 3-(4-Ethoxyphenyl)-3-ethyl-6-(3-phenoxyphenyl)-1-hexyne]: in experiment [1], the “Inhibitory ratio of emergence” value is “A (90% or more)” and the mortality at 3.5 ppm is greater than 90%.

For `C#CC(C)(CCCc1ccc(F)c(Oc2ccc(C)cc2)c1)c1ccc(OCC)cc1` (centres unmarked) [(33), 3-(4-Ethoxyphenyl)-3-methyl-6-{3-(4-methylphenoxy)-4-fluorophenyl}-1-hexyne], in experiment [1], the “Inhibitory ratio of emergence” value is given as “A (90% or more)” and the mortality at 3.5 ppm is greater than 90%.

For `C#CC(C)(CCCc1ccc(F)c(Oc2ccc(Cl)cc2)c1)c1ccc(OCC)cc1` (centres unmarked) [(34), 3-(4-Ethoxyphenyl)-3-methyl-6-{3-(4-chlorophenoxy)-4-fluorophenyl}-1-hexyne], in experiment [1], the “Inhibitory ratio of emergence” value is reported as “A (90% or more)” and the mortality at 3.5 ppm was greater than 90%.

For the compound `C#CC(C)(CCCc1cccc(Oc2ccccc2)c1)c1ccc(F)cc1` (centres unmarked) [(35), 3-(4-Fluorophenyl)-3-methyl-6-(3-phenoxyphenyl)-1-hexyne], in experiment [1], the “Inhibitory ratio of emergence” value was “A (90% or more)” and the mortality at 3.5 ppm was greater than 90%.

For the compound `C#CC(C)(CCCc1ccc(F)c(Oc2ccccc2)c1)c1ccc(Cl)c(Cl)c1` (centres unmarked) [(36), 3-(3,4-Dichlorophenyl)-3-methyl-6-(3-phenoxy-4-fluorophenyl)-1-hexyne], in experiment [1], the “Inhibitory ratio of emergence” value was “A (90% or more)” and the mortality at 3.5 ppm was 10 to 90%.

`C#CC(C)(CCCc1ccc(F)c(Oc2ccc(F)cc2)c1)c1ccc(OCC)cc1` (centres unmarked) [(38), 3-(4-Ethoxyphenyl)-3-methyl-6-{3-(4-fluorophenoxy)-4-fluorophenyl}-1-hexyne]: in experiment [1], the “Inhibitory ratio of emergence” value is “A (90% or more)” and the mortality at 3.5 ppm was greater than 90%.

Consider `C#CC(C)(CCCc1ccc(F)c(Oc2ccccc2)c1)c1ccc(OCC=C)c(Cl)c1` (centres unmarked) [(40)], for which, in experiment [1], the “Inhibitory ratio of emergence” value is recorded as “A (90% or more)” and the mortality at 3.5 ppm was 10 to 90%.

Take `C#CC(CC)(CCCc1ccc(F)c(Oc2ccccc2)c1)c1ccc(Cl)cc1` (centres unmarked) [(41), 3-(4-Chlorophenyl)-3-ethyl-6-(3-phenoxy-4-fluorophenyl)-1-hexyne]: in experiment [1], the “Inhibitory ratio of emergence” value was “A (90% or more)” and the mortality at 3.5 ppm was greater than 90%.

As to `C#CC(CCCC)(CCCc1ccc(F)c(Oc2ccccc2)c1)c1ccc(OCC)cc1` (centres unmarked) [(42), 3-(4-Ethoxyphenyl)-3-n-butyl-6-(3-phenoxy-4-fluorophenyl)-1-hexyne], in experiment [1], the “Inhibitory ratio of emergence” value is given as “A (90% or more)” and the mortality at 3.5 ppm fell in the range of 10 to 90%.

Consider `C#CC(C)(CCCc1cccc(Oc2ccccc2)n1)c1ccc(OC)cc1` (centres unmarked) [(44), 3-(4-methoxyphenyl)-3-methyl-6-(6-phenoxypyridin-2-yl)-1-hexyne], for which, in experiment [1], the “Inhibitory ratio of emergence” value was “A (90% or more)” and the mortality at 3.5 ppm was 10 to 90%.

In the case of `Cc1cc(Cl)ccc1N=CN(C)C` [(E), Chlordimeform, reference compound], in experiment [2], the Degree of damage entry is listed as “- ~ +”.
